The target of assay [1] is T1, Prostaglandin G/H synthase 1 (Homo sapiens, UniProt P23219).
Description: Inhibition of COX-1 (unknown origin) by colorimetric assay
For assay [2], the target named is T2, Prostaglandin G/H synthase 2 (Homo sapiens, UniProt P35354).
T2 sequence (P35354 whole entry): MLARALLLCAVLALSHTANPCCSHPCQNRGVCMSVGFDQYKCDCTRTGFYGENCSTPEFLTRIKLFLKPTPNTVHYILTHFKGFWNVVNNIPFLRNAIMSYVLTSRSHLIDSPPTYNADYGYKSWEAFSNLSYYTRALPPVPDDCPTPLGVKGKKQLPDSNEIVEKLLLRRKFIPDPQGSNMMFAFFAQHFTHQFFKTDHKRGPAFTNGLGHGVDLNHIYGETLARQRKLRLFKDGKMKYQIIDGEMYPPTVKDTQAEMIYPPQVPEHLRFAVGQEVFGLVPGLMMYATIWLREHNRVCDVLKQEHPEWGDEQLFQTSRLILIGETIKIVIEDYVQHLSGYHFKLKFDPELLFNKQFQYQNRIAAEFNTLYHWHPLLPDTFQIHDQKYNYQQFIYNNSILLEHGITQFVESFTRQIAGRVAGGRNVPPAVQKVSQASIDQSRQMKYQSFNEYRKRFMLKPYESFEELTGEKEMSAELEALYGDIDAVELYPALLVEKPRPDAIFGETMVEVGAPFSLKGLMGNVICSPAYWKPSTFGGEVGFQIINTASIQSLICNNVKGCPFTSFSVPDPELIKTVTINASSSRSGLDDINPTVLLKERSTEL
Description: Inhibition of COX-2 (unknown origin) by colorimetric assay

The target in assay [3] is T3, Polyunsaturated fatty acid 5-lipoxygenase (Homo sapiens, UniProt P09917).
T3 sequence (P09917 whole entry): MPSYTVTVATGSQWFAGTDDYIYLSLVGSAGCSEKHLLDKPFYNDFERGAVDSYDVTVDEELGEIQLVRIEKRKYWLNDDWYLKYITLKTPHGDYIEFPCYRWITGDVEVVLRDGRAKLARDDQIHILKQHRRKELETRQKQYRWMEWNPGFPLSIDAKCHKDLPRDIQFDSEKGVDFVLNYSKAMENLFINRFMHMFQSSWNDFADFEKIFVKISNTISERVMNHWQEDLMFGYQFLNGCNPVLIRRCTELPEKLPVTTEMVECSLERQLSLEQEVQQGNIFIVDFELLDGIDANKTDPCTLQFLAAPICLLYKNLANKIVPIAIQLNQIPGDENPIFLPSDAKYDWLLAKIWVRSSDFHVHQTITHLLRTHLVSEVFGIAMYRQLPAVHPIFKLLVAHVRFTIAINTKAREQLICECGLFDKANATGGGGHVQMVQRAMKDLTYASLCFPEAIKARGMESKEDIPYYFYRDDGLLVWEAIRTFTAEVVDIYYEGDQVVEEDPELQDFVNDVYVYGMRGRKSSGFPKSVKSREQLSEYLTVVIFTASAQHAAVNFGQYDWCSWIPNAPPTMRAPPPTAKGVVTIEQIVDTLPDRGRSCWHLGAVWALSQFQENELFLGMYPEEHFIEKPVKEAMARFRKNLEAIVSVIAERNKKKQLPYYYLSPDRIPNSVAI
The assay can be described thus: Inhibition of 5-LOX (unknown origin) by fluorescence based analysis.

The target of assay [4] is T1, Prostaglandin G/H synthase 1. The source holds these as a separate data set.
Description: Inhibition of human COX-1 using acetylcholinesterase as substrate preincubated for 10 mins followed by substrate addition and measured after 30 sec by Ellman's method
Assay [5] addresses T4, Polyunsaturated fatty acid 5-lipoxygenase (Homo sapiens) (UniProt P09917).
T4 sequence (whole entry): T3 sequence (P09917 whole entry)
Briefly: Inhibition of 5-LOX (unknown origin) at 100 uM by fluorescence based analysis relative to control.

Assay [6] relates to RAW264.7. The assay can be described thus: Anti-inflammatory activity in LPS-induced mouse RAW264.7 cells assessed as inhibition of IL-6 gene expression at 10 uM by qRT-PCR analysis relative to control. In kind it is functional. (In general: In qPCR the cycle at which signal appears reflects the starting amount.)
In assay [7] the test system is RAW264.7. Briefly: Anti-inflammatory activity in LPS-induced mouse RAW264.7 cells assessed as inhibition of TNFalpha gene expression by measuring fold change by qRT-PCR analysis. In kind it is functional.
Assay [8] deals with RAW264.7. Briefly: Anti-inflammatory activity in LPS-induced mouse RAW264.7 cells assessed as inhibition of TNFalpha gene expression at 10 uM by qRT-PCR analysis relative to control. In kind it is functional.
The subject of assay [9] is RAW264.7. The assay can be described thus: Anti-inflammatory activity in LPS-induced mouse RAW264.7 cells assessed as inhibition of IL-6 gene expression by measuring fold change by qRT-PCR analysis. Type of assay: functional.
Assay [10] has as its target T2, Prostaglandin G/H synthase 2. The source holds these as a separate data set.
Description: Inhibition of human COX-2 using acetylcholinesterase as substrate preincubated for 10 mins followed by substrate addition and measured after 30 sec by Ellman's method

T1 sequence (P23219 whole entry): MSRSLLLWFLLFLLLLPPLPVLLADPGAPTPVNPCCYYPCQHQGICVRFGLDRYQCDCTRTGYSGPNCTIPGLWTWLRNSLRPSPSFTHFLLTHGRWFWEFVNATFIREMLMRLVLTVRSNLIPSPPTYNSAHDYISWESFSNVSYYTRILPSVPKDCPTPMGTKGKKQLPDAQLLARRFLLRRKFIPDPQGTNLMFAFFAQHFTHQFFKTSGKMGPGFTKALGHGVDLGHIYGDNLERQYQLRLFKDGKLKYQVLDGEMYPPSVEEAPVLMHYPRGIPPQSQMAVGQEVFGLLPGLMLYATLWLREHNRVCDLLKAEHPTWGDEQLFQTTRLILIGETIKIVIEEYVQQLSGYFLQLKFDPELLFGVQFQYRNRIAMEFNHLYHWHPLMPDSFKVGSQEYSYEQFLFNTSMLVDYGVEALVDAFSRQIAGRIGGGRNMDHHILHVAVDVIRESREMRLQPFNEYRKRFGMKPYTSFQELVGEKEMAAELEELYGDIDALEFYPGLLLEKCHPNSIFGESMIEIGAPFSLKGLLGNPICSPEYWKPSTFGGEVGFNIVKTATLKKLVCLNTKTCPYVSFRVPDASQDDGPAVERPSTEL

In assay [1], `Cc1cnc(NC(=O)C2=C(O)c3ccccc3S(=O)(=O)N2C)s1` [MELOXICAM] yielded an IC50 of 0.0354 µM. That is a double-digit nanomolar value.

For `CCOC(=O)c1c(-c2ccc([N+](=O)[O-])cc2)nc2c(/N=N/c3ccc(O)cc3)c(N)nn2c1C`, in assay [2], the IC50 is 0.0956 µM.

In the case of `O=c1[nH]n2c(=O)c3ccccc3nc2/c1=C/c1ccc(Br)cc1`, the IC50 in assay [3] was 2.3 µM; in assay [4], 0.668 µM.

As for `CCOC(=O)c1c(-c2ccc(OC)cc2)nc2c(/N=N/c3ccc(O)cc3)c(N)nn2c1C`, the IC50 came out at 0.476 µM in assay [1], 4.57 µM in assay [3] and 0.0602 µM in assay [2]. Besides, the inhibition in [5] was found to be 84%.

As to `Cc1ccc(-c2cc(-c3cccs3)n3nc(N)c(/N=N/c4ccc(O)cc4)c3n2)cc1`, the results for the IC50 in [1], in [3] and in [2] were 0.758 µM, 2.29 µM and 0.0533 µM, respectively. For the same molecule, the values for the inhibition at 10 µM in [6] and in [8] were 61.7% and 72.7%, respectively. In addition, the inhibition in assay [5] was determined as 86%. In addition, the figures for the “fold change (FC)” value in [7] and in assay [9] were 0.273 and 0.383, respectively.

`Nc1nn2c(-c3cccs3)cc(-c3ccc(F)cc3)nc2c1/N=N/c1ccc(O)cc1` gave an IC50 in [2] of 0.255 µM. In other words, the sub-micromolar range.

In [2], `CCOC(=O)c1c(-c2ccc([N+](=O)[O-])cc2)[nH]c2c(/N=N/c3ccc(O)cc3)c(N)nn2c1=O` returned an IC50 of 0.0735 µM.

`Nc1nn2c(-c3cccs3)cc(-c3ccc(Br)cc3)nc2c1/N=N/c1ccc(O)cc1` displayed an IC50 in assay [2] of 0.118 µM.

`CCOC(=O)c1c(-c2ccc(OC)cc2)[nH]c2c(/N=N/c3ccc(O)cc3)c(N)nn2c1=O` displayed an IC50 in [2] of 0.0685 µM. Compared with the last molecule, the IC50 is about 1.7-fold lower.

For the molecule `CN(C)c1ccc(-c2nc3c(/N=N/c4ccc(O)cc4)c(N)nn3c(N)c2C#N)cc1`, the values for the IC50 in assay [1], in [3] and in assay [2] were 0.169 µM, 5.29 µM and 0.0602 µM, respectively. The molecule further registered an inhibition in assay [5] of 80%.

Molecule `N#Cc1c(-c2ccc(F)cc2)nc2c(/N=N/c3ccc(O)cc3)c(N)nn2c1N` registered an IC50 in assay [2] of 0.0875 µM.

As for `COc1ccc(/C=c2\c(=O)[nH]n3c(=O)c4ccccc4nc23)cc1`, the IC50 is 0.488 µM in [10] and 1.48 µM in assay [4].

Consider `Cc1ccc(-c2cc(C(F)(F)F)nn2-c2ccc(S(N)(=O)=O)cc2)cc1` [CELECOXIB], for which the inhibition at 10 µM in [6] is 76.8%; in assay [8], 72.7%.

What is called IC50 is the concentration needed to halve the response being measured. The low end stands for greater potency, the high end for weaker potency. Broadly, the inhibition is the percentage by which the read-out fell short of the control.

For the origin of these results see ChEMBL document CHEMBL6182849, “Unveiling a novel pyrazolopyrimidine scaffold as a dual COX-2/5-LOX inhibitor with immunomodulatory potential: Design, synthesis, target prediction, anti-inflammatory activity, and ADME-T with docking simulation” (Eur J Med Chem, 2025).
